Read-outs that look alike come from different tables or passages of the source.
Tests used:
[1] = Lewis acidity measuring method (1): reaction rate constant of reaction between CoTPP and oxygen in the presence of a Lewis acid; format: physicochemical
UM-UC-3 cells [2] = test system: UM-UC-3 cells
[3] = test system: various bladder cancer cells (UM-UC-3, UM-UC-2, EJ-1, BOY-12E, 5637); conditions: 120 minutes incubation
UM-UC-3 cells [4] = conditions: 500 ppm NaClO2 for 120 minutes
UM-UC-3 cells [5] = conditions: 500 ppm NaClO2 for 120 minutes, then 24 hours culture; PBS Control 14.6%
UM-UC-3 cells [6] = conditions: 500 ppm NaClO2 for 120 minutes, then 24 hours culture; vs PBS group
[7] = test system: bladder cancer clinical specimen-derived tumor
UM-UC-3 cells [8] = test system: UM-UC-3 cells; remark: listed apart in the source
[9] = test system: tongue cancer cells HSC-3; conditions: 60 minutes incubation, 48 hours culture
[10] = test system: oral cancer cells HO-1-u-1; conditions: 60 minutes incubation, 48 hours culture
colon cancer cells HT29 = conditions: 60 minutes incubation, 48 hours culture
colon cancer cells HT116 = conditions: 60 minutes incubation, 48 hours culture
[11] = test system: pancreatic cancer cells PK05; conditions: 48 hours
[12] = test system: pancreatic cancer cells PK10; conditions: 48 hours
[13] = concentration of 31 ppm or more

**Q.** For benzalkonium chloride, which “kcat (reaction rate constant of reaction between CoTPP and oxygen in the presence of a Lewis acid)” value ([1]; acetonitrile, saturated O2, room temperature) is on record?
**A.** 0.18 M^−2 s^−1

**Q.** For `CCCC[N+](CCCC)(CCCC)CCCC.F[P-](F)(F)(F)(F)F` [tetrabutylammonium hexafluorophosphate], which “kcat (reaction rate constant of reaction between CoTPP and oxygen in the presence of a Lewis acid)” value [1] is on record?
**A.** >0.1 M^−2 s^−1

**Q.** For sodium chlorite [NaClO2], which “cell proliferation vs contact time” value (UM-UC-3 cells [2]; 500 ppm NaClO2, 30, 60, 90, 120 minutes) is on record?
**A.** inhibited in a time-dependent manner

**Q.** What about the “inhibition of cell proliferation” value (UM-UC-3 cells [2]; 500 ppm NaClO2, 120 minutes incubation, then 48 hours culture) of the same compound?
**A.** more than 60%

**Q.** And the “proliferation inhibition vs concentration” value ([3]; then 48 hours culture)?
**A.** concentration-dependent proliferation inhibition

**Q.** And the bladder cancer proliferation ([3]; at 500 ppm or more)?
**A.** almost completely inhibited

**Q.** What about the cell morphology (UM-UC-3 cells [4]; 0 hours after removal) of the same compound?
**A.** morphological changes

**Q.** What about the cell morphology (UM-UC-3 cells [4]; 24 hours after removal) of the same compound?
**A.** regression of cells

**Q.** What about the “vesicle considered to be an apoptotic vesicle” value (UM-UC-3 cells [4]; 24 hours after removal, magnified photomicrograph) of the same compound?
**A.** formation of a vesicle

**Q.** And the “apoptotic rate of UM-UC-3 cells” value (UM-UC-3 cells [5])?
**A.** 43.8%

**Q.** And the “fraction ratio in subG1 phase” value (UM-UC-3 cells [6])?
**A.** significantly increased

**Q.** What about the “excised tumor photograph and tumor weight” value ([7]; tumor immersed in 500 ppm NaClO2, excised on day 27) of the same compound?
**A.** increase in bladder tumors was inhibited

**Q.** And the “proliferation of bladder cancer tumors (tumor volume)” value ([7]; tumor immersed in 500 ppm NaClO2 for 120 minutes before transplantation, measured from day 12)?
**A.** significantly inhibited

**Q.** And the “reactive oxygen species detected, compared with MA-T” value (UM-UC-3 cells [8]; 100 ppm NaClO2 (A100) vs 100 ppm NaClO2 + 100 ppm benzethonium chloride)?
**A.** equivalent to or more than that with MA-T

**Q.** And the “reactive oxygen production (fluorescence plate reader)” value (UM-UC-3 cells [8]; 500 ppm NaClO2 alone)?
**A.** remarkable reactive oxygen production

**Q.** What about the “fluorescence of active oxygen in cells (fluorescence microscopy)” value (UM-UC-3 cells [8]; 500 ppm NaClO2 alone, final concentration) of the same compound?
**A.** remarkable active oxygen production

**Q.** What about the “production of reactive oxygen species on contact with cells (fluorescence intensity)” value (UM-UC-3 cells [8]; over time) of the same compound?
**A.** produced reactive acid species in a time-dependent manner

**Q.** And the “viability / proliferation of cancer cells” value (“viability / proliferation” below) [9]?
**A.** effect of inhibiting proliferation of cancer cells

**Q.** What about the “viability / proliferation” value [10] of the same compound?
**A.** effect of inhibiting proliferation of cancer cells

**Q.** And the “viability / proliferation” value (colon cancer cells HT29)?
**A.** effect of inhibiting proliferation of cancer cells

**Q.** What about the “viability / proliferation” value (colon cancer cells HT116) of the same compound?
**A.** effect of inhibiting proliferation of cancer cells

**Q.** And the “proliferation inhibitory effect vs concentration (viability)” value ([11]; 0-500 ppm)?
**A.** concentration-dependent proliferation inhibitory effect

**Q.** And the “pancreatic cancer cell proliferation” value [11, 13]?
**A.** almost completely inhibited

**Q.** And the “proliferation inhibitory effect vs concentration (viability)” value ([12]; 0-500 ppm)?
**A.** concentration-dependent proliferation inhibitory effect

**Q.** And the “pancreatic cancer cell proliferation” value [12, 13]?
**A.** almost completely inhibited
